# Data reported in US20190309066A1, “COMBINATION THERAPY FOR THE TREATMENT OF SOLID AND HEMATOLOGICAL CANCERS” (Arch Oncology, Inc., priority 2017, published 2019).
# Several values for one entry are separate records, joined by “and”; a condition that tells them apart may be missing. Identical values can stand only once.
# Test system: RPMI-8226 tumors
# Test: RPMI-8226 multiple myeloma xenograft in NSG mice
# Assay type: in vivo, mouse
# Text: The purpose of this experiment was to evaluate the efficacy of anti-CD47 antibodies as a single agent and in combination with the proteasome inhibitor Bortezomib in the tumor growth inhibition in vivo in a xenograft mouse model of multiple myeloma. RPMI-8226 human multiple myeloma cells (ATCC #CCL-155, Manassas, Va.) were maintained in RPMI-1640 (Lonza; Walkersville, Md.) supplemented with 10% Fetal Bovine Serum (FBS; Omega Scientific; Tarzana, Calif.) and 1% Penicillin/Streptomycin (Corning, Manassas, Va.) within a 5% CO2 atmosphere. Cultures were expanded in tissue culture flasks.
# Female NSG (NOD-Cg-Prkdc^scidI12rg^tm1Wjl/SzJ) were obtained from Jackson Laboratory (Bar Harbor, Me.) at 5-6 weeks of age. Mice were acclimated prior to handling and housed in microisolator cages (Lab Products, Seaford, Del.) under specific pathogen-free conditions. Mice were fed Teklad Global Diet® 2920× irradiated laboratory animal diet (Envigo, Formerly Harlan; Indianapolis, Ind.) and provided autoclaved water ad libitum. All procedures were carried out under the institutional guidelines of Translational Drug Development Institutional Animal Care and Use Committee (Protocol #18105). Animals were identified using transponders.
# Female NSG mice were inoculated subcutaneously in the right flank with 0.1 mL of a 30% RPMI/70% Matrigel™ (BD Biosciences; Bedford, Mass.) mixture containing a suspension of 1×10^7 RPMI-8226 tumor cells. Fifteen days following inoculation, mice were randomized Test articles human IgG2 (hIgG2), an anti-CD47 antibody, and Bortezomib (LC Labs, Woburn, Mass.) were administered by intravenous (IV) injection. hIgG2 and anti-CD47 mAb were dosed on Days 0, 7, 14, 21, 28, and 35, while Bortezomib was dosed on Days 1, 4, and 12. as described below in Table 12.
# Mean tumor growth inhibition (TGI) was calculated for Day 48 (the final day all mice were on study) utilizing the following formula.
# The mean TS of each group was calculated and reported.
# All statistical analyses in the xenograft study were performed with Prism GraphPad® software. Differences in Day 48 tumor volumes were confirmed using a one-way ANOVA, unpaired, parametric with the Tukey's Multiple Comparison test with Welch's correction. A two-tailed Student's t-test with Welch's correction was also used to verify any differences between each group and the vehicle control.
# For statistical analysis purpose, any mouse sacrificed as an long term survivor (LTS) was assigned a death day of Day 99.
compound,measurement,setting,value
CC(C)C[C@H](NC(=O)[C@H](Cc1ccccc1)NC(=O)c1cnccn1)B(O)O [Bortezomib],Mean Day of Survival Days ± SEM,Bortezomib 1 mg/kg,76.8 ± 1.6 days
same,Median Day of Survival (Min-Max),Bortezomib 1 mg/kg,78 (70-84) Days
same,Day 48 Mean Tumor Volume (mm^3),Bortezomib 1 mg/kg IV,177 ± 20 mm^3
same,tumor shrinkage (in words),Bortezomib 1 mg/kg IV monotherapy,no tumor shrinkage was recorded
same,Day 48 % TGI,"Bortezomib 1 mg/kg IV, vs hIgG2 control",96.2% and 96.2 (10) %
same,"Day 48 Outcome (ANOVA), tumor volume vs hIgG2 (Group 1)","P value, Bortezomib 1 mg/kg",P < 0.05
same,"Day 48 Outcome (Student's t-test), tumor volume vs hIgG2 (Group 1)","P value, Bortezomib 1 mg/kg",P < 0.05
same,Survival Log-Rank Outcome vs hIgG2 (Group 1),"P value, Bortezomib 1 mg/kg",P < 0.05
